“And” between values parts separate entries of the source, which are not always exact repeats. Identical values can stand only once.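 Test compounds were applied to cells in 96-well plates for 48 hours at 5 doses. GI50 marks 50% less growth. At the TGI there is no net growth.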
Experiments:
Assay in all cases: DTP human tumour cell line panel, 48 h
786-0 renal = test system: 786-0 renal
A498 renal = test system: A498 renal
A549 NSCLC = test system: A549 NSCLC
ACHN renal = test system: ACHN renal
BT-549 breast = test system: BT-549 breast
CAKI-1 renal = test system: CAKI-1 renal
CCRF-CEM leukemia = test system: CCRF-CEM leukemia
COLO 205 colon = test system: COLO 205 colon
DU-145 prostate = test system: DU-145 prostate
EKVX NSCLC = test system: EKVX NSCLC
HCC-2998 colon = test system: HCC-2998 colon
HCT-116 colon = test system: HCT-116 colon
HCT-15 colon = test system: HCT-15 colon
HL-60(TB) leukemia = test system: HL-60(TB) leukemia
HOP-62 NSCLC = test system: HOP-62 NSCLC
HOP-92 NSCLC = test system: HOP-92 NSCLC
HS 578T breast = test system: HS 578T breast
HT29 colon = test system: HT29 colon
IGROV1 ovarian = test system: IGROV1 ovarian
K-562 leukemia = test system: K-562 leukemia
KM12 colon = test system: KM12 colon
LOX IMVI melanoma = test system: LOX IMVI melanoma
M14 melanoma = test system: M14 melanoma
MALME-3M melanoma = test system: MALME-3M melanoma
MCF7 breast = test system: MCF7 breast
MDA-MB-231 breast = test system: MDA-MB-231 breast
MDA-MB-435 = test system: MDA-MB-435
MDA-N = test system: MDA-N
MOLT-4 leukemia = test system: MOLT-4 leukemia
NCI-H226 lung = test system: NCI-H226 lung
NCI-H23 lung = test system: NCI-H23 lung
NCI-H460 lung = test system: NCI-H460 lung
NCI-H522 lung = test system: NCI-H522 lung
NCI/ADR-RES ovarian = test system: NCI/ADR-RES ovarian
OVCAR-3 ovarian = test system: OVCAR-3 ovarian
OVCAR-4 ovarian = test system: OVCAR-4 ovarian
OVCAR-5 ovarian = test system: OVCAR-5 ovarian
OVCAR-8 ovarian = test system: OVCAR-8 ovarian
PC-3 prostate = test system: PC-3 prostate
RPMI-8226 leukemia = test system: RPMI-8226 leukemia
RXF 393 renal = test system: RXF 393 renal
SF-268 CNS = test system: SF-268 CNS
SF-295 CNS = test system: SF-295 CNS
SF-539 CNS = test system: SF-539 CNS
SK-MEL-2 melanoma = test system: SK-MEL-2 melanoma
SK-MEL-28 melanoma = test system: SK-MEL-28 melanoma
SK-MEL-5 melanoma = test system: SK-MEL-5 melanoma
SK-OV-3 ovarian = test system: SK-OV-3 ovarian
SN12C renal = test system: SN12C renal
SNB-19 CNS = test system: SNB-19 CNS
SNB-75 CNS = test system: SNB-75 CNS
SR leukemia = test system: SR leukemia
SW-620 colon = test system: SW-620 colon
T-47D breast = test system: T-47D breast
TK-10 renal = test system: TK-10 renal
U251 CNS = test system: U251 CNS
UACC-257 melanoma = test system: UACC-257 melanoma
UACC-62 melanoma = test system: UACC-62 melanoma
UO-31 renal = test system: UO-31 renal

**Q.** Which results are given for `C[C@H](CCC(=O)O)[C@H]1CC[C@H]2[C@@H]3CC[C@@H]4C[C@H](O)CC[C@]4(C)[C@H]3CC[C@]12C`?
**A.** GI50 (786-0 renal): > 100 µM and 31.8 µM; TGI (786-0 renal): > 100 µM; TGI (A498 renal): > 100 µM; GI50 (A549 NSCLC): > 100 µM and 18.4 µM; TGI (A549 NSCLC): > 100 µM and 46.2 µM; GI50 (ACHN renal): > 100 µM and 37.8 µM; TGI (ACHN renal): > 100 µM; GI50 (BT-549 breast): > 100 µM and 28.4 µM; TGI (BT-549 breast): > 100 µM and 74.7 µM; GI50 (CAKI-1 renal): > 100 µM and 22.2 µM; TGI (CAKI-1 renal): > 100 µM and 47.1 µM; GI50 (CCRF-CEM leukemia): > 100 µM; TGI (CCRF-CEM leukemia): > 100 µM; GI50 (COLO 205 colon): > 100 µM and 25.5 µM; TGI (COLO 205 colon): > 100 µM and 54.6 µM; GI50 (DU-145 prostate): 86.7 µM and 30 µM; TGI (DU-145 prostate): > 100 µM and 87.7 µM; GI50 (EKVX NSCLC): > 100 µM and 20 µM; TGI (EKVX NSCLC): > 100 µM and 69 µM; GI50 (HCC-2998 colon): > 100 µM and 19.8 µM; TGI (HCC-2998 colon): > 100 µM and 40.2 µM; GI50 (HCT-116 colon): > 100 µM and 18.4 µM; TGI (HCT-116 colon): > 100 µM and 33.2 µM; GI50 (HCT-15 colon): > 100 µM and 23.5 µM; TGI (HCT-15 colon): > 100 µM and 62.3 µM; GI50 (HL-60(TB) leukemia): > 100 µM and 15.1 µM; TGI (HL-60(TB) leukemia): > 100 µM and 32.8 µM; GI50 (HOP-62 NSCLC): > 100 µM and 28.2 µM; TGI (HOP-62 NSCLC): > 100 µM and 73.8 µM; GI50 (HOP-92 NSCLC): > 100 µM and 34.1 µM; TGI (HOP-92 NSCLC): > 100 µM and 99.2 µM; GI50 (HS 578T breast): > 100 µM and 33.3 µM; TGI (HS 578T breast): > 100 µM and 65.8 µM; GI50 (HT29 colon): > 100 µM and 21.6 µM; TGI (HT29 colon): > 100 µM and 57.7 µM; GI50 (IGROV1 ovarian): > 100 µM and 40 µM; TGI (IGROV1 ovarian): > 100 µM; GI50 (K-562 leukemia): > 100 µM and 17.4 µM; TGI (K-562 leukemia): > 100 µM and 43.8 µM; GI50 (KM12 colon): > 100 µM and 24.4 µM; TGI (KM12 colon): > 100 µM and 67.2 µM; GI50 (LOX IMVI melanoma): > 100 µM and 28.9 µM; TGI (LOX IMVI melanoma): > 100 µM and 80.3 µM; GI50 (M14 melanoma): > 100 µM and 17.3 µM; TGI (M14 melanoma): > 100 µM and 42 µM; GI50 (MALME-3M melanoma): > 100 µM and 40.2 µM; TGI (MALME-3M melanoma): > 100 µM and 74.1 µM; GI50 (MCF7 breast): > 100 µM and 36.5 µM; TGI (MCF7 breast): > 100 µM; GI50 (MDA-MB-231 breast): > 100 µM and 28.3 µM; TGI (MDA-MB-231 breast): > 100 µM and 73.2 µM; GI50 (MDA-MB-435): > 100 µM and 22.6 µM; TGI (MDA-MB-435): > 100 µM and 50.8 µM; GI50 (MDA-N): > 100 µM and 19.9 µM; TGI (MDA-N): > 100 µM and 46.3 µM; GI50 (MOLT-4 leukemia): > 100 µM and 21.5 µM; TGI (MOLT-4 leukemia): > 100 µM and 52.3 µM; GI50 (NCI-H226 lung): > 100 µM and 37 µM; TGI (NCI-H226 lung): > 100 µM; GI50 (NCI-H23 lung): > 100 µM and 17.9 µM; TGI (NCI-H23 lung): > 100 µM and 33.7 µM; GI50 (NCI-H460 lung): > 100 µM and 18.2 µM; TGI (NCI-H460 lung): > 100 µM and 32.3 µM; GI50 (NCI-H522 lung): > 100 µM and 25.5 µM; TGI (NCI-H522 lung): > 100 µM and 54.5 µM; GI50 (NCI/ADR-RES ovarian): > 100 µM and 29.3 µM; TGI (NCI/ADR-RES ovarian): > 100 µM and 82.4 µM; GI50 (OVCAR-3 ovarian): > 100 µM and 19 µM; TGI (OVCAR-3 ovarian): > 100 µM and 33.3 µM; GI50 (OVCAR-4 ovarian): > 100 µM and 32 µM; TGI (OVCAR-4 ovarian): > 100 µM and 84.5 µM; GI50 (OVCAR-5 ovarian): > 100 µM and 20.7 µM; TGI (OVCAR-5 ovarian): > 100 µM and 60.3 µM; GI50 (OVCAR-8 ovarian): > 100 µM and 41.3 µM; TGI (OVCAR-8 ovarian): > 100 µM; GI50 (PC-3 prostate): > 100 µM and 23.9 µM; TGI (PC-3 prostate): > 100 µM and 57.6 µM; GI50 (RPMI-8226 leukemia): > 100 µM and 22.9 µM; TGI (RPMI-8226 leukemia): > 100 µM and 52.7 µM; GI50 (RXF 393 renal): > 100 µM and 26 µM; TGI (RXF 393 renal): > 100 µM and 62.4 µM; GI50 (SF-268 CNS): > 100 µM and 36 µM; TGI (SF-268 CNS): > 100 µM; GI50 (SF-295 CNS): > 100 µM and 37.2 µM; TGI (SF-295 CNS): > 100 µM; GI50 (SF-539 CNS): > 100 µM and 27.6 µM; TGI (SF-539 CNS): > 100 µM and 61 µM; GI50 (SK-MEL-2 melanoma): > 100 µM and 21.5 µM; TGI (SK-MEL-2 melanoma): > 100 µM and 45.6 µM; GI50 (SK-MEL-28 melanoma): > 100 µM and 27 µM; TGI (SK-MEL-28 melanoma): > 100 µM and 85.3 µM; GI50 (SK-MEL-5 melanoma): > 100 µM and 18.3 µM; TGI (SK-MEL-5 melanoma): > 100 µM and 35.3 µM; GI50 (SK-OV-3 ovarian): > 100 µM and 40.3 µM; TGI (SK-OV-3 ovarian): > 100 µM; GI50 (SN12C renal): > 100 µM and 20.8 µM; TGI (SN12C renal): > 100 µM and 56.1 µM; GI50 (SNB-19 CNS): > 100 µM and 24.3 µM; TGI (SNB-19 CNS): > 100 µM and 90.7 µM; GI50 (SNB-75 CNS): 44.6 µM and 24.6 µM; TGI (SNB-75 CNS): > 100 µM and 59.4 µM; GI50 (SR leukemia): > 100 µM and 14.6 µM; TGI (SR leukemia): > 100 µM and 32.8 µM; GI50 (SW-620 colon): > 100 µM and 27 µM; TGI (SW-620 colon): > 100 µM and 78.7 µM; GI50 (T-47D breast): > 100 µM and 19.9 µM; TGI (T-47D breast): > 100 µM and 46.1 µM; GI50 (TK-10 renal): > 100 µM and 33.6 µM; TGI (TK-10 renal): > 100 µM and 83.3 µM; GI50 (U251 CNS): > 100 µM and 21.3 µM; TGI (U251 CNS): > 100 µM and 43.7 µM; GI50 (UACC-257 melanoma): > 100 µM and 28.3 µM; TGI (UACC-257 melanoma): > 100 µM and 67.6 µM; GI50 (UACC-62 melanoma): > 100 µM and 35.3 µM; TGI (UACC-62 melanoma): > 100 µM; GI50 (UO-31 renal): > 100 µM and 14.3 µM; TGI (UO-31 renal): > 100 µM and 27.3 µM

From PubChem BioAssay (NCI)
